Source: US20230312587A1, “PTERIDINONE COMPOUNDS AND USES THEREOF” (Vertex Pharmaceutical Incorporated, priority 2018, published 2023)

tested on: β-catenin-TCF-mediated reporter transcription activity in Colo 205 cells; assay: Colo 205 reporter assay (TCF/LEF luciferase); assay type: cell-based; conditions: Homo sapiens, COLO 205, 5 h, Colo 205 TCF/LEF luciferase reporter, five hours after addition of compound; read-out: TCF reporter Colo205 IC50
Procedure, shortened: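 Luciferase signal from a TCF/LEF-driven reporter, stably integrated in Colo 205 colon cancer cells, was measured 5 h after compound addition.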

SMILES	IC50 [µM]
Cc1nc(NCc2cnn(C[C@@H](C)c3ccccc3)c2)nc2c1NC(=O)[C@H](C)N2C [Compound 89, (7S)-4,7,8-trimethyl-2-(((1-((S)-2-phenylpropyl)-1H-pyrazol-4-yl)methyl)amino)-7,8-dihydropteridin-6(5H)-one]	< 0.3
Cc1nc(NCc2cnn(C[C@H](C)c3ccccc3)c2)nc2c1NC(=O)[C@H](C)N2C [Compound 90, (7S)-4,7,8-trimethyl-2-(((1-((R)-2-phenylpropyl)-1H-pyrazol-4-yl)methyl)amino)-7,8-dihydropteridin-6(5H)-one]	< 0.3
Cc1nc(NCc2cnn(CC(=O)c3ccc(F)cc3)c2)nc2c1NC(=O)[C@H](C)N2C [Compound 91, (7S)-2-(((1-(2-(4-fluorophenyl)-2-oxoethyl)-1H-pyrazol-4-yl)methyl)amino)-4,7,8-trimethyl-7,8-dihydropteridin-6(5H)-one]	< 0.3
Cc1nc(NCc2cnn(CC(C)(C)c3ccc(F)cc3)c2)nc2c1NC(=O)[C@H](C)N2C [Compound 92, (7S)-2-(((1-(2-(4-fluorophenyl)-2-methylpropyl)-1H-pyrazol-4-yl)methyl)amino)-4,7,8-trimethyl-7,8-dihydropteridin-6(5H)-one]	< 0.3
Cc1nc(NCc2cnn(C[C@@H](C)c3ccc(F)cc3)c2)nc2c1NC(=O)[C@H](C)N2C [Compound 95, (7S)-2-(((1-((S)-2-(4-fluorophenyl)propyl)-1H-pyrazol-4-yl)methyl)amino)-4,7,8-trimethyl-7,8-dihydropteridin-6(5H)-one]	< 0.3
Cc1nc(NCc2cnn(-c3cccc(C(F)(F)F)c3)c2)nc2c1NC(=O)[C@H](C)N2C [Compound 97, (7S)-4,7,8-trimethyl-2-(((1-(3-(trifluoromethyl)phenyl)-1H-pyrazol-4-yl)methyl)amino)-7,8-dihydropteridin-6(5H)-one]	< 0.3
Cc1nc(NCc2cnn(C3CCNCC3)c2)nc2c1NC(=O)[C@H](C)N2C [Compound 99, (7S)-4,7,8-Trimethyl-2-(((1-(piperidin-4-yl)-1H-pyrazol-4-yl)methyl)amino)-7,8-dihydropteridin-6(5H)-one]	≥ 5
Cc1nc(NCc2cnn([C@H](C)Cc3ccccc3)c2)nc2c1NC(=O)[C@H](C)N2C [Compound 101, (7S)-4,7,8-trimethyl-2-(((1-((R)—1-phenylpropan-2-yl)-1H-pyrazol-4-yl)methyl)amino)-7,8-dihydropteridin-6(5H)-one]	< 0.3
Cc1nc(NCc2cnn([C@@H](C)Cc3ccccc3)c2)nc2c1NC(=O)[C@H](C)N2C [Compound 102, (7S)-4,7,8-trimethyl-2-(((1-((S)-1-phenylpropan-2-yl)-1H-pyrazol-4-yl)methyl)amino)-7,8-dihydropteridin-6(5H)-one]	1 to 5
C[C@H]1C(=O)Nc2cnc(NCc3cnn(CCOc4ccc(F)cc4)c3)nc2N1C [Compound 109, (7S)-2-(((1-(2-(4-fluorophenoxy)ethyl)-1H-pyrazol-4-yl)methyl)amino)-7,8-dimethyl-7,8-dihydropteridin-6(5H)-one]	1 to 5
C[C@H]1C(=O)Nc2cnc(NCc3cnn(CCCc4ccc(F)cc4)c3)nc2N1C [Compound 110, (7S)-2-(((1-(3-(4-fluorophenyl)propyl)-1H-pyrazol-4-yl)methyl)amino)-7,8-dimethyl-7,8-dihydropteridin-6(5H)-one]	0.3 to 1
Cc1nc(NCc2cnn(C3CCc4ccc(F)cc43)c2)nc2c1NC(=O)[C@H](C)N2C (stereo partly drawn) [Compound 117, (7S)-2-(((1-(6-fluoro-2,3-dihydro-1H-inden-1-yl)-1H-pyrazol-4-yl)methyl)amino)-4,7,8-trimethyl-7,8-dihydropteridin-6(5H)-one]	< 0.3
Cc1nc(NCc2cnn(C3CCOCC3)c2)nc2c1NC(=O)[C@H](C)N2C [Compound 118, (7S)-4,7,8-trimethyl-2-(((1-(tetrahydro-2H-pyran-4-yl)-1H-pyrazol-4-yl)methyl)amino)-7,8-dihydropteridin-6(5H)-one]	≥ 5
C[C@H]1C(=O)Nc2cnc(NCc3cnn(CCc4ccc(F)cc4F)c3)nc2N1C [Compound 119, (7S)-2-(((1-(2,4-difluorophenethyl)-1H-pyrazol-4-yl)methyl)amino)-7,8-dimethyl-7,8-dihydropteridin-6(5H)-one]	1 to 5
C[C@H]1C(=O)Nc2cnc(NCc3cnn(CCc4cc(F)cc(F)c4)c3)nc2N1C [Compound 120, (7S)-2-(((1-(3,5-difluorophenethyl)-1H-pyrazol-4-yl)methyl)amino)-7,8-dimethyl-7,8-dihydropteridin-6(5H)-one]	0.3 to 1
Cc1nc(NCc2cnn(C3CCN(C(=O)c4cc(F)c(F)c(F)c4)CC3)c2)nc2c1NC(=O)[C@H](C)N2C [Compound 124, (7S)-4,7,8-Trimethyl-2-(((1-(1-(3,4,5-trifluorobenzoyl)piperidin-4-yl)-1H-pyrazol-4-yl)methyl)amino)-7,8-dihydropteridin-6(5H)-one]	0.3 to 1
Cc1nc(NCc2ccc(Nc3cnn(CC(F)(F)F)c3)nc2)nc2c1NC(=O)[C@H](C)N2C [Compound 126, (7S)-4,7,8-trimethyl-2-(((6-((1-(2,2,2-trifluoroethyl)-1H-pyrazol-4-yl)amino)pyridin-3-yl)methyl)amino)-7,8-dihydropteridin-6(5H)-one]	1 to 5
Cc1nc(NCc2cnn([C@@H]3CCN(C4CCC(F)(F)CC4)C3)c2)nc2c1NC(=O)[C@H](C)N2C [Compound 127, (7S)-2-(((1-((R)-1-(4,4-difluorocyclohexyl)pyrrolidin-3-yl)-1H-pyrazol-4-yl)methyl)amino)-4,7,8-trimethyl-7,8-dihydropteridin-6(5H)-one]	0.3 to 1
Cc1nc(NCc2cnn(Cc3ccc(OC(C)C)nc3)c2)nc2c1N(C)C(=O)[C@H](C)N2C [Compound 129, (7S)-2-(((1-((6-isopropoxypyridin-3-yl)methyl)-1H-pyrazol-4-yl)methyl)amino)-4,5,7,8-tetramethyl-7,8-dihydropteridin-6(5H)-one]	0.3 to 1
Cc1nc(NCc2cnn(C3CCN(c4ccc(F)cc4)CC3)c2)nc2c1NC(=O)[C@H](C)N2C [Compound 130, (7S)-2-(((1-(1-(4-fluorophenyl)piperidin-4-yl)-1H-pyrazol-4-yl)methyl)amino)-4,7,8-trimethyl-7,8-dihydropteridin-6(5H)-one]	≥ 5
Cc1nc(NCc2cnn(CCC3CCCC3)c2)nc2c1NC(=O)[C@H](C)N2C [Compound 133, (7S)-2-(((1-(2-cyclopentylethyl)-1H-pyrazol-4-yl)methyl)amino)-4,7,8-trimethyl-7,8-dihydropteridin-6(5H)-one]	< 0.3
Cc1nc(NCc2cnn(CC3CC4CCC3C4)c2)nc2c1NC(=O)[C@H](C)N2C (stereo partly drawn) [Compound 134, (7S)-2-(((1-(bicyclo[2.2.1]heptan-2-ylmethyl)-1H-pyrazol-4-yl)methyl)amino)-4,7,8-trimethyl-7,8-dihydropteridin-6(5H)-one]	< 0.3

Next, values leading:

IC50 [µM]	SMILES
1 to 5	Cc1nc(NCc2cnn(-c3ccc(F)cc3F)c2)nc2c1NC(=O)[C@H](C)N2C [Compound 98, (7S)-2-(((1-(2,4-difluorophenyl)-1H-pyrazol-4-yl)methyl)amino)-4,7,8-trimethyl-7,8-dihydropteridin-6(5H)-one]
< 0.3	Cc1nc(NCc2cnn(CCCc3ccc(F)cc3)c2)nc2c1NC(=O)[C@H](C)N2C [Compound 104, (7S)-2-(((1-(3-(4-fluorophenyl)propyl)-1H-pyrazol-4-yl)methyl)amino)-4,7,8-trimethyl-7,8-dihydropteridin-6(5H)-one]
< 0.3	Cc1nc(NCc2cnn(CCc3ccc(F)c(F)c3)c2)nc2c1NC(=O)[C@H](C)N2C [Compound 105, (7S)-2-(((1-(3,4-difluorophenethyl)-1H-pyrazol-4-yl)methyl)amino)-4,7,8-trimethyl-7,8-dihydropteridin-6(5H)-one]
< 0.3	Cc1nc(NCc2cnn(CCc3ccc(F)cc3F)c2)nc2c1NC(=O)[C@H](C)N2C [Compound 106, (7S)-2-(((1-(2,4-difluorophenethyl)-1H-pyrazol-4-yl)methyl)amino)-4,7,8-trimethyl-7,8-dihydropteridin-6(5H)-one]
< 0.3	Cc1nc(NCc2cnn(CCc3cc(F)cc(F)c3)c2)nc2c1NC(=O)[C@H](C)N2C [Compound 107, (7S)-2-(((1-(3,5-difluorophenethyl)-1H-pyrazol-4-yl)methyl)amino)-4,7,8-trimethyl-7,8-dihydropteridin-6(5H)-one]
0.3 to 1	CCOc1ccc(CCn2cc(CNc3nc(C)c4c(n3)N(C)[C@@H](C)C(=O)N4)cn2)cc1 [Compound 108, (7S)-2-(((1-(4-ethoxyphenethyl)-1H-pyrazol-4-yl)methyl)amino)-4,7,8-trimethyl-7,8-dihydropteridin-6(5H)-one]
0.3 to 1	C[C@H]1C(=O)Nc2cnc(NCc3cnn(CCc4ccc(F)c(F)c4)c3)nc2N1C [Compound 111, (7S)-2-(((1-(3,4-difluorophenethyl)-1H-pyrazol-4-yl)methyl)amino)-7,8-dimethyl-7,8-dihydropteridin-6(5H)-one]
< 0.3	Cc1nc(NCc2cnn(CCc3cc(F)c(F)c(F)c3)c2)nc2c1NC(=O)[C@H](C)N2C [Compound 123, (7S)-4,7,8-trimethyl-2-(((1-(3,4,5-trifluorophenethyl)-1H-pyrazol-4-yl)methyl)amino)-7,8-dihydropteridin-6(5H)-one]
1 to 5	Cc1nc(NCc2cnn(C[C@@H](O)c3ccc(F)cc3)c2)nc2c1NC(=O)[C@H](C)N2C [Compound 131, (7S)-2-[[1-[(2S)-2-(4-fluorophenyl)-2-hydroxy-ethyl]pyrazol-4-yl]methylamino]-4,7,8-trimethyl-5,7-dihydropteridin-6-one]
0.3 to 1	Cc1nc(NCc2cnn(C[C@H](O)c3ccc(F)cc3)c2)nc2c1NC(=O)[C@H](C)N2C [Compound 132, (7S)-2-[[1-[(2R)-2-(4-fluorophenyl)-2-hydroxy-ethyl]pyrazol-4-yl]methylamino]-4,7,8-trimethyl-5,7-dihydropteridin-6-one]
